Test results: ChEMBL document CHEMBL1128159, “Synthesis and evaluation of diacylhydrazines as inhibitors of the interleukin-1 converting enzyme (ICE)” (Bioorg Med Chem Lett, 1995)
Where a SMILES comes first, the peptide text is derived from it.

Experiments:
Caspase-1 (Homo sapiens) = biological target: T1, Caspase-1 (Homo sapiens) (UniProt P29466); test: Compound was tested for inhibition of IL-1 beta converting enzyme by measuring second order rate of inactivation
T1 sequence (whole entry): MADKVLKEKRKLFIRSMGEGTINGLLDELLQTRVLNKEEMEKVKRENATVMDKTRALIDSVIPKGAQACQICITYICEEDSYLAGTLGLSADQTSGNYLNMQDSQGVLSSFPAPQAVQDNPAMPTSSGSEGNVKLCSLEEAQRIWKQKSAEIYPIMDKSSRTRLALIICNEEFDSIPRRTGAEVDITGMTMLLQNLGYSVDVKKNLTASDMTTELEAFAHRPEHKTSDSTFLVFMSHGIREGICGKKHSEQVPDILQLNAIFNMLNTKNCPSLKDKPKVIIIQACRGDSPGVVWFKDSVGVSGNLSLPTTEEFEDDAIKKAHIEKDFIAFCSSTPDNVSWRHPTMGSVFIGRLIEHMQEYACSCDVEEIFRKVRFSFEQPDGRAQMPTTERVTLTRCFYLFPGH

[1] = Half life of compound in ICE assay buffer (1 mM dithiothreitol) at 25 degree C; type: ADME; details: ICE assay buffer with 1 mM dithiothreitol
[2] = Half life of compound in ICE assay buffer (1 mM glutathione) at […] degree C; type: ADME; details: ICE assay buffer with 1 mM glutathione
[3] = Half life of compound in ICE assay buffer (1 mM dithiothreitol) at 25 degree C (89% intact after 120 h); type: ADME; details: ICE assay buffer with 1 mM dithiothreitol
[4] = Half life of compound in ICE assay buffer (1 mM dithiothreitol) at 25 degree C (98% intact after 120 h); type: ADME; details: ICE assay buffer with 1 mM dithiothreitol

Row | Compound | second-order inactivation rate constant (kobs/[I]) (Caspase-1 (Homo sapiens)) [M⁻¹ s⁻¹] | half-life [2] [h] | also measured
1 | CC(C)[C@H](NC(=O)OCc1ccccc1)C(=O)N[C@@H](C)C(=O)NN(CC(=O)O)C(=O)CBr | 1640 | – | –
2 | CC(C)[C@H](NC(=O)OCc1ccccc1)C(=O)N[C@@H](C)C(=O)N[C@@H](CC(=O)O)C(=O)CCl (HELM PEPTIDE1{[O=C(OCc1ccccc1)[*:2]].V.A.D.[ClC[*:1]]}$$$$V2.0) | – | – | half-life [1]: 0.25 h
3 | CC(C)[C@H](NC(=O)OCc1ccccc1)C(=O)N[C@@H](C)C(=O)NN(CC(=O)O)C(=O)COc1cc(C(F)(F)F)nn1-c1ccccc1 | 470 | – | –
4 | CC(C)[C@H](NC(=O)OCc1ccccc1)C(=O)N[C@@H](C)C(=O)NN(CC(=O)O)C(=O)COC1=C(Cc2ccccc2)C(=O)OC1 | 120 | – | –
5 | CC(C)[C@H](NC(=O)OCc1ccccc1)C(=O)N[C@@H](C)C(=O)N[C@@H](CC(=O)O)C(=O)COP(=O)(c1ccccc1)c1ccccc1 | 118000 | 0.96 | –
6 | CC(C)[C@H](NC(=O)OCc1ccccc1)C(=O)N[C@@H](C)C(=O)NN(CC(=O)O)C(=O)CCl | 27300 | 3.5 | half-life [3]: > 120 h
7 | CC(C)[C@H](NC(=O)OCc1ccccc1)C(=O)N[C@@H](C)C(=O)NN(CC(=O)O)C(=O)COC(=O)c1c(Cl)cccc1Cl | 700 | – | –
8 | CC(C)[C@H](NC(=O)OCc1ccccc1)C(=O)N[C@@H](C)C(=O)NN(CC(=O)O)C(=O)COP(=O)(c1ccccc1)c1ccccc1 | 19400 | 130 | half-life [4]: > 120 h
9 | CC(C)[C@H](NC(=O)OCc1ccccc1)C(=O)N[C@@H](C)C(=O)NC(CC(=O)O)C(=O)COC1=C(Cc2ccccc2)C(=O)OC1 (some centres undefined) | 290000 | – | –
